US6159733A, “Method for photoinactivating malignant cells” (priority 1996, dated 2000)

Assays:
CFU-GM = conditions: 15 nM Pc 4, 5×10^6 cells/mL, 8 J/cm^2; cited from earlier work
L1210 cells [1] = assay: Photoinactivation of cell line, colony forming assay; format: cell-based, murine; conditions: for fluence for photoinactivation to below the detection levels: 15 nM
Procedure: (§1) Cell lines and culture conditions. WEHI-3 (murine myelocytic leukemia), L1210 (murine lymphocytic leukemia) and P815 (murine mastocytoma) cells were grown in RPMI 1640 (GibcoBRL, Grand Island, N.Y.) supplemented with 10% FBS. BC3A (murine leukemia) cells were grown in RPMI 1640 supplemented with 10 μM β-mercaptoethanol and 10% FBS; ABE-8.1/2 (murine pre-B lymphoma) cells were grown in DMEM (GibcoBRL)--10 μM β-mercaptoethanol--10% FBS. All cell lines were obtained from the American Type Culture Collection (Rockville, Md.) and were cultured at 37° C. in a humidified 5% CO2 -incubator. Prior to incubation with Pc 4, the cell lines were centrifuged and resuspended in phosphate buffered saline (PBS)--10% FBS, pH 7.4.
(§2) Photosensitization. Aliquots of a 1.87 mM Pc 4 (kindly provided by Dr. M. E. Kenney) stock solution in dimethyl sulfoxide were kept at -80° C. in autoclaved brown glass vials. Immediately prior to the photosensitization, Pc4 was thawed and diluted in dimethyl formamide to yield a 10 μM working solution. […] Pc 4 was used at 15 nM throughout the experiments.
(§3) BM and cell line samples, were incubated with 15 nM Pc 4 for two hours at 37° C. at cell concentrations of 1.5×10^7 cells/mL. Aliquots of 1.5 mL were transferred to 24-well plates; separate plates were used for each sample.
(§4) In a second set of experiments, the cells were incubated with 15 nM Pc 4 at cell concentrations of 1.5×10^6 cells/mL. Prior to photoirradiation, the samples were centrifuged and the supernatants were aspirated and set aside. The cell concentrations were adjusted to 1.5×10^7 cells/mL by adding back an appropriate volume of the Pc 4 containing aspirates.
(§5) Photoinactivation. The light source used was a filtered xenon short arc lamp (Versa-Light, Model UV-R6G, Medic Lightech, Ltd., Haifa, Israel). It was used to deliver red light (λ 600-700 nm) to the sensitized cells. After a 20 minute warm up period of the instrument, the distance from the light source to the bottom of the 24-well plate was adjusted to obtain a fluence rate of 26.6 mW/cm^2, as measured with a radiometer (Model IL 1350, International Light, Newburyport, Mass.). Samples were placed under the light source and were stirred during the irradiations. Before and after the irradiations, samples were kept in the dark.
(§6) Cell line samples were plated (in triplicate) in a semi-solid medium which consisted of DMEM--20% vol/vol serum (2/3 horse serum, 1/3 FBS)--3 mM glutamine--60 μM β-mercaptoethanol--0.3% wt/vol agar. The samples were incubated at 37° C. in a humidified 5% CO2 -incubator, and colonies consisting of more than 50 cells were counted after nine days.
(§7) Statistics. All assays were performed in triplicate unless mentioned otherwise. Data are expressed as mean values±standard error of the mean (SEM). Survival data are presented as surviving fractions relative to the surviving fractions of the untreated controls. The significance of the differences between experimental values was assessed by means of the Student's t-test.

P815 cells [2] = assay: as above; format: cell-based, murine
Procedure: as §1, §2, §3, §4, §5, §6, §7

WEHI-3 cells = assay: as above; format: cell-based, murine
Procedure: as §1, §2, §3, §4, §5, §6, §7

BC3A cells [3] = assay: as above; format: cell-based, murine; conditions: for fluence for photoinactivation to below the detection levels: 15 nM
Procedure: as §1, §2, §3, §4, §5, §6, §7

ABE-8.1/2 cells = assay: as above; format: cell-based, murine; conditions: for fluence for photoinactivation to below the detection levels: 15 nM
Procedure: as §1, §2, §3, §4, §5, §6, §7

L1210 cells [4] = assay: Uptake of Pc 4, flow cytometry; format: cell-based, murine; conditions: for Pc 4 content / Pc 4 content per cell volume: 15 nM
Procedure: as §1
(§8) In mixing experiments, aliquots of Ly-5.2 BM and cell lines samples were mixed at different ratios. The combined cell concentration of each sample was 1.5×10^7 cells/mL. […] The cell lines were stained with anti-Ly-5.1^FITC. This treatment allowed clear resolution of the relatively small ABE-8.1/2 and BC3A cells from the bone marrow granulocytes. Immediately prior to the analyses, propidium iodide (PI, 0.5 μg/mL) was added to the samples to allow exclusion of dead cells (PI^+) from the analyses. The samples were analyzed in a FACStar^PLUS (BD) that was equipped with an argon ion laser tuned to 488 nm (200 mW) and a dye laser tuned to 610 nm (300 mW). FITC, PE, PI and Pc 4 fluorescence emissions were collected through 530/30, 575/42, 660/10, 670/10 nm band pass filters, respectively.
(§9) Cell size. Microscopic measurements of at least 20 cells were performed using a calibrated micrometer. To determine the cell size of the BM progenitor subsets, the c-kit^+,Sca-1^- and c-kit^+,Sca-1^+ fractions were sorted. The sorted cells were centrifuged and the pellets were resuspended in a 20 μl of HBBS. Samples were deposited onto microscope slides and covered with a cover slip. Cell diameters of 7.7±0.2 (c-kit^+,Sca-1^+), 8.4±0.3 (c-kit^+,Sca-1^-), 10.9±0.2 (BC3A), 11.1±0.2 (ABE-8.1/2), 13.0±0.3 (L1210), 14.2±0.3 (P815), 15.0±0.4 μm (WEHI-3) were obtained.

P815 cells [5] = assay: Uptake of Pc 4, flow cytometry; format: cell-based, murine; conditions: for Pc 4 content / Pc 4 content per cell volume: 15 nM
Procedure: as §1, §8, §9

BC3A cells [6] = assay: Uptake of Pc 4, flow cytometry; format: cell-based, murine
Procedure: as §1, §8, §9

BFU-E = conditions: 15 nM Pc 4, 5×10^6 cells/mL, 8 J/cm^2; cited from earlier work
V79 = conditions: cited from earlier work
[7] = 1.5×10^6 cells/ml during incubation
[8] = 1.5×10^7 cells/ml during incubation
[9] = from 8.0×10^5 to 1.5×10^7 cells/mL
[10] = 15 nM, 1.5×10^6 cells/ml during incubation
[11] = 15 nM, 1.5×10^7 cells/ml during incubation

## CN(C)CCC[Si](C)(C)O[Si]1(O)n2c3c4ccccc4c2N=C2N=C(N=c4c5ccccc5c(n41)=NC1=NC(=N3)c3ccccc31)c1ccccc12 (stereo not drawn) [Pc 4, hydroxysiloxy-dimethylpropyl-N-dimethyl silicon phthalocyanine]
CFU-GM
  surviving fraction of human cells: 1.0
L1210 cells [1]; 1.5×10^6 cells/mL
  fluence for photoinactivation to below the detection levels: 6 J/cm^2
  selectivity of photoinactivation towards the cell line: < 1 log10
L1210 cells [1]; 1.5×10^7 cells/mL
  fluence for photoinactivation to below the detection levels: 18 J/cm^2
L1210 cells [1]; 1.5×10^7 cells/mL, 18 J/cm^2
  selective photoinactivation: > 6 log10
P815 cells [2]; 15 nM, 1.5×10^6 cells/mL
  fluence for photoinactivation to below the detection levels: 6 J/cm^2
P815 cells [2]; 1.5×10^6 cells/mL
  selectivity of photoinactivation towards the cell line: ~3 logs
P815 cells [2]; 1.5×10^7 cells/mL, 18 J/cm^2
  selective photoinactivation: > 3 log10
P815 cells [2]; Mus musculus, P815, light or radiation study, read-out: surviving fraction
  viability at 0.015 µM: 0.053 ± 2.6e-06%
WEHI-3 cells; 15 nM, 1.5×10^6 cells/mL
  fluence for photoinactivation to below the detection levels: 12 J/cm^2
WEHI-3 cells; 1.5×10^6 cells/mL
  selectivity of photoinactivation towards the cell line: ~4 log10
WEHI-3 cells; 1.5×10^7 cells/mL, 18 J/cm^2
  selective photoinactivation: 5 log10
WEHI-3 cells; Mus musculus, WEHI-3, light or radiation study, read-out: surviving fraction
  viability at 0.015 µM: 0.00038%
BC3A cells [3]; 1.5×10^6 cells/mL
  fluence for photoinactivation to below the detection levels: 6 J/cm^2
  selectivity of photoinactivation towards the cell line: approximately 5 log10
BC3A cells [3]; 1.5×10^7 cells/mL
  fluence for photoinactivation to below the detection levels: 12 J/cm^2
BC3A cells [3]; 1.5×10^7 cells/mL, 18 J/cm^2
  selective photoinactivation: > 6 log10
ABE-8.1/2 cells; 1.5×10^6 cells/mL
  fluence for photoinactivation to below the detection levels: 3 J/cm^2
  selectivity of photoinactivation towards the cell line: approximately 5 log10
ABE-8.1/2 cells; 1.5×10^7 cells/mL
  fluence for photoinactivation to below the detection levels: 12 J/cm^2
ABE-8.1/2 cells; 1.5×10^7 cells/mL, 18 J/cm^2
  selective photoinactivation: > 6 log10
L1210 cells [4]; [7]
  Pc 4 content: 291 ± 14.0 Mean fluorescence/cell
  Pc 4 content per cell volume: 0.25 Mean fluorescence/μm^3
L1210 cells [4]; [8]
  Pc 4 content: 124 ± 4.2 Mean fluorescence/cell
  Pc 4 content per cell volume: 0.11 Mean fluorescence/μm^3
L1210 cells [4]; [9]
  reduction of Pc 4 uptake: 2.5 fold
P815 cells [5]; [7]
  Pc 4 content: 414 ± 21.5 Mean fluorescence/cell
  Pc 4 content per cell volume: 0.28 Mean fluorescence/μm^3
P815 cells [5]; [8]
  Pc 4 content: 152 ± 17.2 Mean fluorescence/cell
  Pc 4 content per cell volume: 0.10 Mean fluorescence/μm^3
P815 cells [5]; [9]
  reduction of Pc 4 uptake: 2.8 fold
BC3A cells [6]; 15 nM
  cell concentration at which uptake reached a plateau: 8.0×10^5 cells/mL
BC3A cells [6]; [10]
  Pc 4 content: 137 ± 11.3 Mean fluorescence/cell
  Pc 4 content per cell volume: 0.20 Mean fluorescence/μm^3
BC3A cells [6]; [11]
  Pc 4 content: 80 ± 5.5 Mean fluorescence/cell
  Pc 4 content per cell volume: 0.12 Mean fluorescence/μm^3
BC3A cells [6]; [9]
  reduction of Pc 4 uptake: 1.6 fold
BFU-E
  surviving fraction of human cells: 0.9
V79
  photoinactivation of V79 cells: effectively photoinactivate
